# Residues, ends and D or L forms follow the SMILES beside them.
# Experiments:
# [1] = test system: Human immunodeficiency virus 1; experiment: Binding affinity to HIV1 His-tagged N-terminal heptad repeat of envelope glycoprotein gp41 assessed as recovery of N54-drug complex after 2 hrs by LC-MS analysis; parameters: concentration or dose not given beside the values
# [2] = test system: Human immunodeficiency virus 1; experiment: Antiviral activity against HIV1 NL4-3 harboring gp41 D36G mutant infected in human HeLa cells expressing CD4-LTR-beta-gal assessed as inhibition of viral replication after 48 hrs by MAGI assay; type: functional, organism-based
# [3] = test system: Human immunodeficiency virus 1; experiment: Thermal stability of HIV1 envelope glycoprotein gp41 His-tagged N-terminal heptad repeat N54-drug complex assessed as thermal unfolding transition state by measuring molar ellipticity at 4 to 90 degC by circular dichroic spectra analysis
Structure (SMILES),Activity [1],EC50 [2],Tm [3]
CC[C@H](C)[C@H](NC(=O)[C@H](CC(C)C)NC(=O)[C@H](CCC(=O)O)NC(=O)[C@H](CCC(=O)O)NC(=O)[C@@H](NC(=O)[C@H](CC(C)C)NC(=O)[C@H](CO)NC(=O)[C@@H](NC(=O)[C@H](Cc1ccc(O)cc1)NC(C)=O)[C@@H](C)O)[C@@H](C)CC)C(=O)N[C@@H](CCCCN)C(=O)N[C@@H](CCCCN)C(=O)N[C@@H](CC(=O)O)C(=O)N[C@@H](CCC(=O)O)C(=O)N[C@@H](CCC(=O)O)C(=O)N[C@@H](CCC(N)=O)C(=O)N[C@@H](CCC(N)=O)C(=O)N[C@@H](CCCCN)C(=O)N[C@@H](CCCCN)C(=O)N[C@@H](CC(N)=O)C(=O)N[C@@H](CCC(=O)O)C(=O)N[C@@H](CCC(=O)O)C(=O)N[C@@H](CCC(=O)O)C(=O)N[C@@H](CC(C)C)C(=O)N[C@@H](CCCCN)C(=O)N[C@@H](CCCCN)C(=O)N[C@@H](CC(C)C)C(=O)N[C@@H](CCC(=O)O)C(=O)N[C@@H](CCC(=O)O)C(=O)N[C@@H](Cc1c[nH]c2ccccc12)C(=O)N[C@@H](C)C(=O)N[C@@H](CCCCN)C(=O)N[C@@H](CCCCN)C(=O)N[C@@H](Cc1c[nH]c2ccccc12)C(=O)N[C@@H](CC(N)=O)C(=O)N[C@@H](Cc1c[nH]c2ccccc12)C(=O)N[C@@H](Cc1ccccc1)C(N)=O (Ac-YTSLIEELIKKDEEQQKKNEEELKKLEEWAKKWNWF-NH2),1.5%,330 nM,56.5 °C
CC[C@H](C)[C@H](NC(=O)[C@H](CC(C)C)NC(=O)[C@H](CCC(=O)O)NC(=O)[C@H](CCC(=O)O)NC(=O)[C@@H](NC(=O)[C@H](CC(C)C)NC(=O)[C@H](CO)NC(=O)[C@@H](NC(=O)[C@H](Cc1ccc(O)cc1)NC(C)=O)[C@@H](C)O)[C@@H](C)CC)C(=O)N[C@@H](CCCCN)C(=O)N[C@@H](CCCCN)C(=O)N[C@@H](CCC(=O)O)C(=O)N[C@@H](CCC(=O)O)C(=O)N[C@@H](CCC(=O)O)C(=O)N[C@@H](CCC(N)=O)C(=O)N[C@@H](CCC(N)=O)C(=O)N[C@@H](CCCCN)C(=O)N[C@@H](CCCCN)C(=O)N[C@@H](CC(N)=O)C(=O)N[C@@H](CCC(=O)O)C(=O)N[C@@H](CCC(=O)O)C(=O)N[C@@H](CCC(=O)O)C(=O)N[C@@H](CC(C)C)C(=O)N[C@@H](CCCCN)C(=O)N[C@@H](CCCCN)C(=O)N[C@@H](CC(C)C)C(=O)N[C@@H](CCC(=O)O)C(=O)N[C@@H](CCC(=O)O)C(=O)N[C@@H](Cc1c[nH]c2ccccc12)C(=O)N[C@@H](C)C(=O)N[C@@H](CCCCN)C(=O)N[C@@H](CCCCN)C(=O)N[C@@H](Cc1c[nH]c2ccccc12)C(=O)N[C@@H](CC(N)=O)C(=O)N[C@@H](Cc1c[nH]c2ccccc12)C(=O)N[C@@H](Cc1ccccc1)C(N)=O (Ac-YTSLIEELIKKEEEQQKKNEEELKKLEEWAKKWNWF-NH2),2.2%,230 nM,61 °C
CC[C@H](C)[C@H](NC(=O)[C@H](CC(C)C)NC(=O)[C@H](CCC(=O)O)NC(=O)[C@H](CCC(=O)O)NC(=O)[C@@H](NC(=O)[C@H](CC(C)C)NC(=O)[C@H](CO)NC(=O)[C@@H](NC(=O)[C@H](Cc1ccc(O)cc1)NC(C)=O)[C@@H](C)O)[C@@H](C)CC)C(=O)N[C@@H](CCCCN)C(=O)N[C@@H](CCCCN)C(=O)N[C@@H](Cc1ccccc1)C(=O)N[C@@H](CCC(=O)O)C(=O)N[C@@H](CCC(=O)O)C(=O)N[C@@H](CCC(N)=O)C(=O)N[C@@H](CCC(N)=O)C(=O)N[C@@H](CCCCN)C(=O)N[C@@H](CCCCN)C(=O)N[C@@H](CC(N)=O)C(=O)N[C@@H](CCC(=O)O)C(=O)N[C@@H](CCC(=O)O)C(=O)N[C@@H](CCC(=O)O)C(=O)N[C@@H](CC(C)C)C(=O)N[C@@H](CCCCN)C(=O)N[C@@H](CCCCN)C(=O)N[C@@H](CC(C)C)C(=O)N[C@@H](CCC(=O)O)C(=O)N[C@@H](CCC(=O)O)C(=O)N[C@@H](Cc1c[nH]c2ccccc12)C(=O)N[C@@H](C)C(=O)N[C@@H](CCCCN)C(=O)N[C@@H](CCCCN)C(=O)N[C@@H](Cc1c[nH]c2ccccc12)C(=O)N[C@@H](CC(N)=O)C(=O)N[C@@H](Cc1c[nH]c2ccccc12)C(=O)N[C@@H](Cc1ccccc1)C(N)=O (Ac-YTSLIEELIKKFEEQQKKNEEELKKLEEWAKKWNWF-NH2),5.8%,2.8 nM,64.6 °C
